Measured values as given in patent US9328085B2, “Heterocyclic compounds and expansion agents for hematopoietic stem cells” (NISSAN CHEMICAL INDUSTRIES, LTD., priority 2009, dated 2016).

Experiments:
CD34^+CD38^− cells = assay: Expansion of CD34+CD38- cells using human cord blood-derived CD34+ cells (Assay Example 1); type: cell-based; conditions: for Expansion efficiency (CD34^+CD38^− cells): 100 ng/mL SCF, 7 days, based on the number of CD34^+CD38^− cells in the absence of compound; for Comparison with TPO: 3 μg/mL compound vs TPO 10 ng/mL, CD34^+CD38^− cells
Experimental: (§1) Human cord blood-derived CD34^+ cells were purchased from Lonza and plated on a 24-well plate (Corning) (10000 cells/1 mL/well). As the culture medium, StemSpan SFEM (StemCell Technologies) containing 100 ng/mL SCF (Wako Pure Chemical Industries) was used, and one of Compounds No. 1 to 72 dissolved in dimethyl sulfoxide was added in an amount of 0.1% (v/v) to a final concentration of 1 or 3 μg/mL. As a positive control, TPO (PeproTech) was used at a final concentration of 10 ng/mL.
(§2) After the cells were incubated in liquid culture at 37° C. for 7 days in a CO2 incubator (5% CO2), the number of viable cells was counted by trypan blue assay. The number of CD34^+CD38^− cells was calculated as follows. After the incubation, the cells in the liquid culture was stained with a CD34 antibody (APC, Becton, Dickinson and Company) and a CD38 antibody (PE, Becton, Dickinson and Company), then washed with PBS(−) containing 2% (v/v) FBS and stained with propidium iodide (Sigma-Aldrich Japan) added to a final concentration of 5 μg/mL. The stained cells were analyzed with a BD FACSCANTO™ II flow cytometer (Becton, Dickinson and Company) to determined the proportions of CD34^+ cells and CD34^+CD38^− cells, which was multiplied by the number of viable cells to calculate the numbers of CD34^+ cells and CD34^+CD38^− cells.
(§3) The expansion efficiencies in the presence of 1 or 3 μg/mL of compounds based on the number of CD34^+ cells in the absence of them are shown in Tables 3-1 and 3-2 on a scale of A for expansion efficiencies of 6 or greater, B for expansion efficiencies of at least 4 and less than 6, and C for expansion efficiencies of at least 2 and less than 4. The expansion efficiencies in the presence of 1 or 3 μg/mL of compounds based on the number of CD34^+CD38^− cells in the absence of them are shown in Tables 4-1 and 4-2 on a scale of A for expansion efficiencies of 10 or greater, B for expansion efficiencies of at least 5 and less than 10, and C for expansion efficiencies of at least 3 and less than 5. Further, in Table 3, the compounds with an expansion efficiency twice or more greater than that of TPO are marked with O.

CD34^+ cells = assay: Expansion of CD34+ cells using human cord blood-derived CD34+ cells (Assay Example 1); type: cell-based; conditions: 100 ng/mL SCF, 7 days, based on the number of CD34^+ cells in the absence of compound
Experimental: as §1, §2, §3

Compound	Expansion efficiency (CD34^+CD38^− cells) (CD34^+CD38^− cells; 3 μg/mL compound)	Expansion efficiency (CD34^+ cells) (CD34^+ cells; 3 μg/mL compound)	Comparison with TPO (CD34^+CD38^− cells)	Expansion efficiency (CD34^+CD38^− cells) (CD34^+CD38^− cells; 1 μg/mL compound)	Expansion efficiency (CD34^+ cells) (CD34^+ cells; 1 μg/mL compound)
CC(=NNC(=O)c1ccc(C(=O)NCc2ccc(C(=O)NCc3ccccn3)cc2)s1)c1csc(-c2ccc(Br)cc2)c1O [Compound No. 6]	C (C for expansion efficiencies of at least 3 and less than 5)				
C/C(=N\NC(=O)c1ccc(C(=O)NCc2ccc(S(=O)(=O)NCCOCCO)cc2)s1)c1csc(-c2ccc(Cl)c(Cl)c2)c1O [compound 1]	A (A for expansion efficiencies of 10 or greater)	C (C for expansion efficiencies of at least 2 and less than 4)			
CC(=NNC(=O)c1ccc(C(=O)NCc2ccc(S(=O)(=O)NCCOCCO)cc2)s1)c1csc(-c2ccc(C(C)(C)C)cc2)c1O [compound 2]	A (A for expansion efficiencies of 10 or greater)	B (B for expansion efficiencies of at least 4 and less than 6)			
CC(=NNC(=O)c1ccc(C(=O)NCc2ccc(S(=O)(=O)NCCOCCO)cc2)s1)c1csc(-c2ccc(Br)cc2)c1O [compound 3]	A (A for expansion efficiencies of 10 or greater)	C (C for expansion efficiencies of at least 2 and less than 4)			
CC(=NNC(=O)c1ccc(C(=O)NCc2ccc(C(=O)NCc3ccccn3)cc2)s1)c1csc(-c2ccc(Cl)c(Cl)c2)c1O [compound 4]	B (B for expansion efficiencies of at least 5 and less than 10)	C (C for expansion efficiencies of at least 2 and less than 4)			
CC(=NNC(=O)c1ccc(C(=O)NCc2ccc(C(=O)NCc3ccccn3)cc2)s1)c1csc(-c2ccc(C(C)(C)C)cc2)c1O [compound 5]	A (A for expansion efficiencies of 10 or greater)	B (B for expansion efficiencies of at least 4 and less than 6)			
CC(=NNC(=O)c1ccc(C(=O)NCc2ccc(C(=O)NCc3ccco3)cc2)s1)c1csc(-c2ccc(Cl)c(Cl)c2)c1O [compound 7]	B (B for expansion efficiencies of at least 5 and less than 10)	C (C for expansion efficiencies of at least 2 and less than 4)			
CC(=NNC(=O)c1ccc(C(=O)NCc2ccc(C(=O)NCc3ccco3)cc2)s1)c1csc(-c2ccc(C(C)(C)C)cc2)c1O [compound 8]	B (B for expansion efficiencies of at least 5 and less than 10)				
CC(=NNC(=O)c1ccc(C(=O)NCc2ccc(C(=O)NCc3ccco3)cc2)s1)c1csc(-c2ccc(Br)cc2)c1O [compound 9]	B (B for expansion efficiencies of at least 5 and less than 10)	C (C for expansion efficiencies of at least 2 and less than 4)			
CC(=NNC(=O)c1ccc(C(=O)NCc2ccc(C(=O)NCC3CCCO3)cc2)s1)c1csc(-c2ccc(Cl)c(Cl)c2)c1O (stereo not shown) [compound 10]	A (A for expansion efficiencies of 10 or greater)	B (B for expansion efficiencies of at least 4 and less than 6)			
CC(=NNC(=O)c1ccc(C(=O)NCc2ccc(C(=O)NCC3CCCO3)cc2)s1)c1csc(-c2ccc(C(C)(C)C)cc2)c1O (stereo not shown) [compound 11]	A (A for expansion efficiencies of 10 or greater)	A (A for expansion efficiencies of 6 or greater)			
CC(=NNC(=O)c1ccc(C(=O)NCc2ccc(C(=O)NCC3CCCO3)cc2)s1)c1csc(-c2ccc(Br)cc2)c1O (stereo not shown) [compound 12]	A (A for expansion efficiencies of 10 or greater)	A (A for expansion efficiencies of 6 or greater)			
CC(=NNC(=O)c1ccc(C(=O)NCc2ccc(C(=O)NCCO)cc2)s1)c1csc(-c2ccc(Cl)c(Cl)c2)c1O [compound 13]	A (A for expansion efficiencies of 10 or greater)	A (A for expansion efficiencies of 6 or greater)	∘		
CC(=NNC(=O)c1ccc(C(=O)NCc2ccc(C(=O)NCCO)cc2)s1)c1csc(-c2ccc(C(C)(C)C)cc2)c1O [compound 14]				A (A for expansion efficiencies of 10 or greater)	A (A for expansion efficiencies of 6 or greater)
CC(=NNC(=O)c1ccc(C(=O)NCc2ccc(C(=O)NCCO)cc2)s1)c1csc(-c2ccc(Br)cc2)c1O [compound 15]	A (A for expansion efficiencies of 10 or greater)	A (A for expansion efficiencies of 6 or greater)	∘		
CC(=NNC(=O)c1ccc(C(=O)NCc2ccc(C(=O)NCCN3CCOCC3)cc2)s1)c1csc(-c2ccc(Cl)c(Cl)c2)c1O [compound 19]	A (A for expansion efficiencies of 10 or greater)	C (C for expansion efficiencies of at least 2 and less than 4)			
CC(=NNC(=O)c1ccc(C(=O)NCc2ccc(C(=O)NCCN3CCOCC3)cc2)s1)c1csc(-c2ccc(C(C)(C)C)cc2)c1O [compound 20]	A (A for expansion efficiencies of 10 or greater)	B (B for expansion efficiencies of at least 4 and less than 6)	∘		
CC(=NNC(=O)c1ccc(C(=O)NCc2ccc(C(=O)NCCN3CCOCC3)cc2)s1)c1csc(-c2ccc(Br)cc2)c1O [compound 21]	A (A for expansion efficiencies of 10 or greater)	A (A for expansion efficiencies of 6 or greater)	∘		
CC(=NNC(=O)c1ccc(C(=O)NCc2ccc(C(=O)NCCN(CCO)CCO)cc2)s1)c1csc(-c2ccc(Cl)c(Cl)c2)c1O [compound 22]	A (A for expansion efficiencies of 10 or greater)	A (A for expansion efficiencies of 6 or greater)	∘		
CC(=NNC(=O)c1ccc(C(=O)NCc2ccc(C(=O)NCCN(CCO)CCO)cc2)s1)c1csc(-c2ccc(C(C)(C)C)cc2)c1O [compound 23]	A (A for expansion efficiencies of 10 or greater)	A (A for expansion efficiencies of 6 or greater)	∘		
CC(=NNC(=O)c1ccc(C(=O)NCc2ccc(C(=O)NCCN(CCO)CCO)cc2)s1)c1csc(-c2ccc(Br)cc2)c1O [compound 24]	A (A for expansion efficiencies of 10 or greater)	A (A for expansion efficiencies of 6 or greater)	∘		
CC(=NNC(=O)c1ccc(C(=O)NCc2ccc(C(=O)NCCN3CCN(C(=O)OC(C)(C)C)CC3)cc2)s1)c1csc(-c2ccc(Br)cc2)c1O [compound 27]	C (C for expansion efficiencies of at least 3 and less than 5)				
CC(=NNC(=O)c1ccc(C(=O)NCc2ccc(C(=O)NCCN3CCNCC3)cc2)s1)c1csc(-c2ccc(Cl)c(Cl)c2)c1O [compound 28]	A (A for expansion efficiencies of 10 or greater)	B (B for expansion efficiencies of at least 4 and less than 6)			
CC(=NNC(=O)c1ccc(C(=O)NCc2ccc(C(=O)NCCN3CCNCC3)cc2)s1)c1csc(-c2ccc(C(C)(C)C)cc2)c1O [compound 29]	A (A for expansion efficiencies of 10 or greater)	A (A for expansion efficiencies of 6 or greater)	∘		
CC(=NNC(=O)c1ccc(C(=O)NCc2ccc(C(=O)NCCN3CCNCC3)cc2)s1)c1csc(-c2ccc(Br)cc2)c1O [compound 30]	A (A for expansion efficiencies of 10 or greater)	A (A for expansion efficiencies of 6 or greater)	∘		
CC(=NNC(=O)c1ccc(C(=O)NCc2ccc(C(=O)NCCOCCO)cc2)nc1)c1csc(-c2ccc(C(C)(C)C)cc2)c1O [compound 47]	B (B for expansion efficiencies of at least 5 and less than 10)				
CC(=NNC(=O)c1cccc(C(=O)NCc2ccc(C(=O)NCCOCCO)cc2)n1)c1csc(-c2ccc(C(C)(C)C)cc2)c1O [compound 50]	C (C for expansion efficiencies of at least 3 and less than 5)				
